Common to all, as to format: cell-based, human
Test [1] concerns hEOs. The test is described as follows: Self-organization of hES cells into 3D hEOs, static 96-well culture. The method, then:
Inventors used W15-NANOS3-tdTomato and RUES2-GLR hES cell lines in this study. All hES cells were cultured in Essential 8™ (E8) medium (Life Technologies, A1517001) on freshly prepared Vitronectin (Fisher Scientific, A31804) coated 6-well plates in humidified chambers at 37° C. and 5% CO2. hES cells were passaged every 3-4 days (once they reached ~70% confluency) using 0.5 mM EDTA (ThermoFisher Scientific, AM9260G) in homemade phosphate buffer saline (1×PBS). The transient state of cells was induced, as described previously, with slight modifications^19. In brief, hES cell colonies (70% confluent) were dissociated into single cells using 0.25% Trypsin-EDTA (Life Technologies, 25200072), seeded (600,000 cells/well) into freshly prepared Vitronectin-coated 6-well plates (~30 mins). The cells were cultured for 24 h in the presence of Advanced RPMI 1640 (Life Technologies, 61870-036) supplemented with B27 supplement (1%) (ThermoFisher Scientific, 17504044), 0.1 mM NEAA, 100 U/ml Penicillin, 0.1 mg/ml Streptomycin, 2 mM L-glutamine, Activin A (1 μg/ml) (In-house produced by Biochemistry Department, University of Cambridge), Chiron (3 μM) (CHIR99021, TOCRIS 4423/10) and Rho-associated, coiled-coil containing protein kinase (ROCK) inhibitor (Rocki: 10 μM); Y27632) (hereafter called induction medium, IM). […]

The test system of test [2] is niSTEMBRYOs. The test is described as follows: Red hemogenic zones in niSTEMBRYOs.
The test system of test [3] is hEOs. Briefly: Scaled static culture of hEOs in Aggrewell 400 plates. The method, then: (§1) 24 well Aggrewell™ 400 plates (StemCell Technologies 34411) were pre-treated with 500 μl/well anti-adherence medium and centrifuged at 1300×g for 5 mins. After aspirating the medium, the wells were rinsed with 2 ml warm basal medium. Then, the medium was replaced by 1 ml warm organisation medium (OM). The plate was incubated at 37° C. at 5% CO2 until the cells were ready for seeding. OM comprised of Essential 6 (E6) medium (Life Technologies, A1516401) supplemented with 0.25 μM CH and ROCKi (10 μM). Pre-induced cells were dissociated using 0.25% Trypsin-EDTA, and 480,000 cells were seeded into each well of an Aggrewell™ 400 Plate at the rate of 400 cells/microwell and were centrifuged at 300×g for 3 mins. The final volume of medium in each well was 2 ml. Cells were cultured in Aggrewell plates at 37° C. at 5% CO2 for 4 days. The OM (without ROCKi) was replaced every day. On day 5, hEOs were manually picked and transferred to bottles for rotary culture in a bioreactor. From Day 5, hEOs were cultured in OM supplemented with 1 μM SB431542 at hypoxic conditions (5% O2, 5% CO2 and without ROCKi). The hEOs were collected at different time points for further analysis.

Test [4] deals with niSTEMBRYOs. Briefly: Contracting cardiomyocytes in niSTEMBRYOs.
The test system of test [5] is hPGCLCs. Briefly: hPGCLC specification in hEOs, NANOS3-tdTomato reporter. The method, then:
Inventors used W15-NANOS3-tdTomato and RUES2-GLR hES cell lines in this study. All hES cells were cultured in Essential 8™ (E8) medium (Life Technologies, A1517001) on freshly prepared Vitronectin (Fisher Scientific, A31804) coated 6-well plates in humidified chambers at 37° C. and 5% CO2. hES cells were passaged every 3-4 days (once they reached ~70% confluency) using 0.5 mM EDTA (ThermoFisher Scientific, AM9260G) in homemade phosphate buffer saline (1×PBS). The transient state of cells was induced, as described previously, with slight modifications^19. In brief, hES cell colonies (70% confluent) were dissociated into single cells using 0.25% Trypsin-EDTA (Life Technologies, 25200072), seeded (600,000 cells/well) into freshly prepared Vitronectin-coated 6-well plates (~30 mins). The cells were cultured for 24 h in the presence of Advanced RPMI 1640 (Life Technologies, 61870-036) supplemented with B27 supplement (1%) (ThermoFisher Scientific, 17504044), 0.1 mM NEAA, 100 U/ml Penicillin, 0.1 mg/ml Streptomycin, 2 mM L-glutamine, Activin A (1 μg/ml) (In-house produced by Biochemistry Department, University of Cambridge), Chiron (3 μM) (CHIR99021, TOCRIS 4423/10) and Rho-associated, coiled-coil containing protein kinase (ROCK) inhibitor (Rocki: 10 μM); Y27632) (hereafter called induction medium, IM).
Transient cells induced in IM for 24 h were dissociated into single cells using 0.25% Trypsin-EDTA and seeded (400 cells/well) into Corning Clear Ultra-low attachment 96-well plates (Fisher Scientific 10023683). […]
hEOs cultured on ultra-low attachment 96-well plates were collected, washed in 1×PBS and fixed in 4% PFA for 3-4 hours at room temperature or 1% PFA overnight at 4° C. hEOs were embedded in OCT mounting medium (VWR-361603E) and incubated in dry ice for 30 min before sectioning the frozen samples. An antigen retrieval procedure was performed to remove the fluorescence reporter from W15-NANOS3-tdTomato hES cell line, where required. […]

The subject of test [6] is hEOs. The test is described as follows: Frequency of hEOs with red inclusions (haematopoiesis). The method, then:
as §1, with “On day 5, hEOs were manually picked and transferred to bottles for rotary culture in a bioreactor. From Day 5, hEOs were cultured in OM supplemented with 1 μM SB431542 at hypoxic conditions (5% O2, 5% CO2 and without ROCKi).” left out

Test [7] has as its system niSTEMBRYOs. The test is described as follows: niSTEMBRYO static and kinetic culture: growth and morphology. The note with it: kinetic culture with SB.
In test [8] the test system is niSTEMBRYOs. The test is described as follows: Lineage marker expression and hindgut formation in niSTEMBRYOs.
The subject of test [9] is hEOs. The test is described as follows: Kinetic rotary culture of hEOs: growth and morphology. The method, then: as §1, with “analysis. Medium containing human cord serum (HCS) (also known as ex-utero culture medium, EUCM) was used as described earlier^64. […]” for “analysis.”
The test system of test [10] is hEOs. Briefly: Frequency of beating hEOs (periodic contractions). The method, then: 24 well Aggrewell™ 400 plates (StemCell Technologies 34411) were pre-treated with 500 μl/well anti-adherence medium and centrifuged at 1300×g for 5 mins. After aspirating the medium, the wells were rinsed with 2 ml warm basal medium. Then, the medium was replaced by 1 ml warm organisation medium (OM). The plate was incubated at 37° C. at 5% CO2 until the cells were ready for seeding. OM comprised of Essential 6 (E6) medium (Life Technologies, A1516401) supplemented with 0.25 μM CH and ROCKi (10 μM). Pre-induced cells were dissociated using 0.25% Trypsin-EDTA, and 480,000 cells were seeded into each well of an Aggrewell™ 400 Plate at the rate of 400 cells/microwell and were centrifuged at 300×g for 3 mins. The final volume of medium in each well was 2 ml. Cells were cultured in Aggrewell plates at 37° C. at 5% CO2 for 4 days. The OM (without ROCKi) was replaced every day. On day 5, hEOs were manually picked and transferred to bottles for rotary culture in a bioreactor. From Day 5, hEOs were cultured in OM supplemented with 1 μM SB431542 at hypoxic conditions (5% O2, 5% CO2 and without ROCKi). The hEOs were collected at different time points for further analysis. Medium containing human cord serum (HCS) (also known as ex-utero culture medium, EUCM) was used as described earlier^64. In brief, 25% human cord serum was mixed with 25% DMEM (Gibco 11880) (low glucose, no phenol red, no glutamine, no HEPES) and 50% rat serum. Glutamine and Penicillin-Streptomycin (50 units/ml penicillin) were added to the medium supplemented with 4 mg/ml glucose and HEPES (GIBCO 15630056, 11 mM) and 1 mM Sodium Pyruvate. Human cord serum was provided by the Cambridge Blood and Stem Cell Biobank, which is supported by the Cambridge NIHR Biomedical Research Centre, Wellcome Trust-MRC Stem Cell Institute, UK. Rat serum was heat-inactivated for 30 min at 56° C. and filtered through 0.22 μm PVDF filter, whereas human serum was heat inactivated at 55° C. for 45 minutes and sterilized through filtration by 0.22 μm filters. […]

Molecules are shown by their SMILES.

With `Cc1c[nH]c(-c2cnc(NCCNc3ccc(C#N)cn3)nc2-c2ccc(Cl)cc2Cl)n1` [CH, CHIR99021], the “aggregates elongated along the longitudinal axis” value in test [1] (0.25 μM CH, after two days, 1620/1800, N=10 experiments) is on record as “more than 90%”. Besides, the “self-organization of aggregates into 3D elongated structures” value in test [1] (CH 0.25 μM, 0.5 μM and 1.0 μM) is given as “sufficient to promote self-organization into 3D elongated structures”. Also, the “appearance of red hemogenic zones” value in [2] (aggregates cultured in the presence of CH or HCS alone) is reported as “did not appear”. Also, in test [3] (four days in the presence of CH, by day 4, 1845/3100, N=4 experiments), the “elongation of the aggregates” value is ~ 60%. Moreover, the periodic contractions entry in test [4] (niSTEMBRYOs cultured with HCS or with CH alone) is reported as “not evident”. Moreover, the “elongation of hEOs and hPGCLC specification (NANOS3-tdTomato reporter)” value in test [5] (CH 0.25 μM, from D2 until D8, without exogenous BMP2/4) was “both the elongation of hEOs and the specification of hPGCLCs”. In addition, the “detection of hPGCLCs” value in test [5] (high concentration of CH (1.0 μM), D3 hEOs) was “No hPGCLCs were detected”.

As for `c1ccc2c(-c3cnn4cc(-c5ccc(N6CCNCC6)cc5)cnc34)ccnc2c1` [LDN193189], the “effect of BMP inhibition on specification of hPGCLCs” value in [5] (inhibitor present on D1, D2 or D3) is listed as “affected the specification of hPGCLCs when present on D1 but not on D2 or D3”.

Regarding `NC(=O)c1ccc(-c2nc(-c3ccc4c(c3)OCO4)c(-c3ccccn3)[nH]2)cc1` [SB43, SB431542], the “hEOs containing large internal red zones” value in [6] (SB in rotary cultures, by day 15) is reported as ~ 14%. Moreover, in test [6] (SB included in the 4D static culture), the red inclusion phenotype entry is given as “entirely lost”. Further, the results for the aggregate size result in test [7] (after 14 days) and in test [7] (after four days) were “quadrupling” and “doubling in size”, respectively. Besides, the “hindgut (SOX17, SOX2 tubular structure)” value in test [8] (SB from D1 (SB early)) is listed as “appearance of hindgut”. The “expression of mesodermal marker TBXT” value in test [8] (SB from D1 (SB early), by D4) is given as “downregulated”. Also, the hindgut entry in [8] (SB from D4 (SB late)) is “absent”. In test [9] (kinetic culture with 1 μM SB43, with or without 10% Matrigel, after four days), the hEO size result is “doubled in size”. In [9] (kinetic culture with SB, after 22 days), the “hEO size relative to static culture on D4” value is “quadrupled in size”. For the same compound, the “haematopoiesis in niSTEMBRYOs” value in [2] (SB43 from day 4 onwards (SB late)) was “promoted haematopoiesis”. For the same compound, the red hemogenic phenotype entry in test [2] (SB from D1 (SB early)) is “no red hemogenic phenotype was observed”. Moreover, in test [2] (SB in rotary cultures, from D14 onwards, N=196/1170, 5 experiments), the “niSTEMBRYOs developing visible red hemogenic zones” value is on record as ~ 16%. The “increase in the frequency of elongated hEOs” value in test [3] (SB in the initial four-day static cultures, D4, p=0.0016) was found to be 15%. For the same compound, the “niSTEMBRYOs with periodic and highly localised contractions” value in test [4] (D8, kinetic culture with SB) is ~ 72%; in [4] (after 7 days, kinetic culture with SB) it was ~ 10%. Further, the “appearance of contracting cardiomyocytes” value in [4] (SB from D1 (SB early) vs SB from D4 (SB late)) is listed as “not affected”. Besides, the “hEOs with periodic and highly localised contractions” value is ~ 10% in test [10] (D7, kinetic culture with SB) and roughly 70% in test [10] (D8, kinetic culture with SB). Besides, the “decrease in the number of beating hEOs” value in [10] (SB in static and kinetic cultures vs SB only during kinetic cultures, D8, p<0.0001) was 40%.

These data come from US20260250629A1, “STEM CELLS BASED THREE-DIMENSIONAL EMBRYO MODEL” (CAMBRIDGE ENTERPRISE LIMITED, priority 2023, published 2026).
